From patent US20190289849A1, “Novel Plant Growth Regulators and Methods of Using Same” (Duke University, priority 2016, published 2019) come the findings set out here.

One experiment relates to lateral root primordia. The experiment can be described thus: Lateral root primordia counts with WOX5 (stage 1) and EN7 (stage 3) markers, and primordia emergence. It is filed as in vivo, Arabidopsis thaliana. The method, then:
All seeds were in the Columbia-0 background. Seeds were sterilized with chlorine gas, incubated in 4° C. water for 2 days, and plated on 1% (wt/vol) Murashige and Skoog (1% MS) media with 1% agar. They were exposed to 100-130 μmol/(m^2s^1) illumination and grown vertically under long-day conditions at 22° C. Plants were analyzed at 7 days after stratification (das), unless noted otherwise. D15-treated media was made using D15 (N-(4-fluorobenzyl)-methoxycinnamic hydroxamic acid) synthesized by LeadGen Labs, LLC solubilized in DMSO. 100 mM D15 stock solution was diluted directly into 1% MS media for final concentrations ranging from 1 μM to 100 μM. For initial experiments testing the ability of apocarotenoids to rescue D15, plants were seeded on 1% MS media containing 30 μM D15 and 100 nM apocarotenoid (diluted from 1 mM stock solutions dissolved in DMSO). For subsequent experiments characterizing the effect of β-cyclocitral, plants were exposed to volatile analytical grade β-cyclocitral (≥97%, Sigma Aldrich) using 100×15 mm partitioned petri dishes. One side of the partition was filled with 25 μM β-cyclocitral diluted in 1% MS media. Seeds were plated on the other side of the partition, on 1% MS media. […] For norflurazone treatments, norflurazone (Chem Service) dissolved in DMSO was diluted to a final concentration of 500 nM norflurazone in 1% MS media. For all experiments, including those performed on tomatoes and rice, plants were never exposed to DMSO concentrations that exceeded 0.1%.
To measure lateral root capacity, the primary root apical meristem of each seedling was sterilely excised at 7 days. The plants were given 3 days to grow out lateral roots, and then each emerged lateral root was counted using a dissection microscope, as described previously (Van Norman et al., Proceedings of the National Academy of Sciences of the United States of America, 2014. 111(13): p. E1300-E1309). Luciferase activity was measured as previously described, using exposure times of 7 min (Moreno-Risueno, M. A., et al., Science, 2010. 329(5997): p. 1306-1311). WOX5^+ and EN7^+ primordia were counted using a stereo zoom microscope (Zeiss). Lateral and primary root lengths for Arabidopsis thaliana and tomato were measured using ImageJ (National Institutes of Health) software. 3D images of rice root architecture were captured using a 360° revolving platform and these images were analyzed using GiA Roots (www.giaroots.org), as described previously by Topp (2013). Primary root lengths were determined by dissecting the root and measuring the length with a ruler. Shoot mass was measured after removing the shoots and drying them for 10 days at 60° C.
First, the effect of D15 on lateral root branching was characterized and is shown FIG. 1. […] NCEDs are a sub-group of CCDs that cleave carotenoids at the 11, 12′ positions. […] By titrating D15 to its IC50 concentration (30 μM), the lateral root capacity was measured with enhanced sensitivity (FIGS. 1A-B). To determine how D15 inhibits lateral root branching, its effect on the lateral root clock, which establishes the sites of lateral root initiation, was examined. To test this, a synthetic promoter driving luciferase (pDR5:LUC) was utilized. In control roots, luminescence intensity oscillates every six hours (FIG. 1C). Only the root cells that experience the peak oscillation intensity become competent to form lateral root pre-branch sites. […] To further characterize the effect of D15 on lateral root initiation, its effect on two stages of primordia development was determined, as marked by WOX5 (pWOX5:GFP) and EN7 (pEN7:GAL4; UAS:H2A-GFP). These lines allow visualization of the QC at stage 1 of primordia development and the endodermis at stage 3 of development, respectively. […] This further supports the lateral root clock evidence that D15 inhibits the initiation of lateral root primordia.

The subject of the next experiment is Arabidopsis. The experiment can be described thus: High concentration (10 mM) apocarotenoid effects on plant growth. It is filed as in vivo. As for the experimental part: FIG. 10 illustrates the effect of high doses of β-cyclocitral and DHAD on root growth. A) The effect of adding small volumes of 10 mM apocarotenoids daily to either the shoots, root tip, or the middle of the root. B) A confocal image of a healthy root stained with propidium iodide, which marks dead cells. C) A root treated with 10 mM β-cyclocitral applied to the tip of the root.
FIG. 11 illustrates the effect of 10 mM apocarotenoids on plant development. A) The percent change in lateral root capacity, normalized to control plants. Abbreviations: dihydro-β-ionone (DHβI), dimethyl-β-cyclocitral (DMβC). β-cyclocitral (β-cyc), pseudoionone (PI), and dihydroactinidiolide (DHAD). B) Confocal image of a control root stained with propidium iodide. C) Image of a root treated with safranal. D) Images of leaves form a control plant. E) Images of leaves from a plant treated with pseudoionone.
At high concentrations (10 mM) of β-cyclocitral or DHAD, root length, shoot mass, and lateral root growth were inhibited. […] In one embodiment, safranal may be detrimental to Arabidopsis at concentrations as low as 500 μM.

With `CC1=C(C=O)C(C)(C)CCC1` [β-cyclocitral], the “WOX5+ primordia initiation” value with lateral root primordia (in D15-treated plants) was “did not rescue”. Besides, the “WOX5+ sites” value in the experiment on lateral root primordia (in the absence of D15) is reported as “did not increase”. For the same compound, the “number of EN7+ primordia” value with lateral root primordia (in the absence of D15, p=0.12) is reported as “did increase”. Moreover, in the experiment on lateral root primordia (in the presence of D15, p=0.02), the “number of EN7+ primordia” value was “did increase”. For the same compound, in the experiment on Arabidopsis (10 mM), the lateral root growth entry is “inhibited”, the root length entry was “inhibited” and the shoot mass result is reported as “inhibited”. The root growth entry in the experiment with Arabidopsis (10 mM applied only to the root tip) is “sufficient to reduce root growth”.
